# Where two headings read alike, the source gives them in different places.
# Key:
# Bombus terrestris = assay: Tent test / drench application / bumblebees: pollination activity on tomato; assay type: in vivo; conditions: for Zahl der Blüten: markierte Blüten / Zahl der Blüten: offene Blüten: 20 mg a.s./pl.
# Description: Der Versuch wurde wie folgt durchgeführt:
# Bei Tomaten kommt es durch den Besuch von Hummeln zu einer Farbveränderung der Staubgefäße (markierte Blüten). Es wurde die Zahl offener und markierter Blüten bestimmt. Tabelle 8 (siehe auch Figur 8)
# Apis mellifera = assay type: in vivo; conditions: for Zahl toter Arbeiterbienen: 20 mg a.s./pl.
# Description: Die Mortalität von Arbeiterbienen vor dem Bienenstock wird mittels einer Falle für tote Bienen (dead bee trap) bestimmt. Die Falle besteht aus Maschendraht und ist vor dem Bienenstock angebracht. Einzelne, lebende Bienen können die Maschen des Drahts passieren, der Transport toter Bienen durch die Maschen ist nicht möglich, weswegen tote Bienen sich in der Falle ansammeln. Tabelle 1 (siehe auch Figur 1)
smiles,measurement,setting,value
"O=C1C=C(N(Cc2ccc(Cl)nc2)CC(F)F)CO1 [I-5, 4-{[(6-Chlorpyrid-3-yl)methyl](2,2-difluorethyl)amino}furan-2(5H)-on]",Zahl der Blüten: markierte Blüten,Bombus terrestris; DAA 13 after first application,"59,4"
same,Zahl der Blüten: offene Blüten,Bombus terrestris; DAA 13 after first application,"67,3"
same,Zahl der Blüten: markierte Blüten,Bombus terrestris; DAA 22 after first application,"53,7"
same,Zahl der Blüten: offene Blüten,Bombus terrestris; DAA 22 after first application,"59,3"
same,Bestäubungsaktivität der Hummeln,"Bombus terrestris; result in words, 20 mg a.s. / Pflanze, 2 applications (Tag 0 und Tag 14)",keine Änderung
same,Zahl toter Arbeiterbienen,Apis mellifera; 6 DAA a (9:30 Uhr),8
same,Zahl toter Arbeiterbienen,Apis mellifera; 6 DAA b (14:30 Uhr),2
same,Zahl toter Arbeiterbienen,Apis mellifera; 7 DAA,8
same,Zahl toter Arbeiterbienen,Apis mellifera; 8 DAA,0
same,Zahl toter Arbeiterbienen,Apis mellifera; 9 DAA,0
same,Zahl toter Arbeiterbienen,Apis mellifera; 10 DAA,7
same,Zahl toter Arbeiterbienen,Apis mellifera; 11 DAA,2
same,Zahl toter Arbeiterbienen,Apis mellifera; 14 DAA,1
same,Zahl toter Arbeiterbienen,Apis mellifera; 16 DAA,1
same,Zahl toter Arbeiterbienen,Apis mellifera; 18 DAA,2
same,Mortalität von Arbeiterbienen vor dem Bienenstock,"Apis mellifera; result in words, tent test, drench, I-5 20 mg a.s. / Pflanze, Thiamethoxam 10 mg a.s. / Pflanze",keine Mortalität

# Source: patent publication EP2193713A1, “Method for fighting animal pests without damaging pollinating insects” (Bayer CropScience AG, priority 2008, dated 2010)
